Values of other authors, collected in patent US20060201391A1, “Compositions having sustained-release insect repellency” (priority 2005, published 2006).

Tested on: mosquitoes, stable flies and deer ticks

SMILES: C[C@H]1COC(=O)[C@@H]2[C@@H]1CC[C@@H]2C [DHN, dihydronepetalactone]
- insect repellency compared with DEET: substantially equivalent to DEET
